# US7375058B2, “Herbicidal mixtures based on 3-phenyluracils” (priority 2002, dated 2008)
# Where a name gives a salt, the structure may show the parent alone.
# What was measured:
# GALAP = test: Greenhouse post-emergence herbicidal action against GALAP; format: in vivo, Galium aparine
# Text: (§1) For the post-emergence treatment, the test plants were first grown to a height of 3 to 20 cm, depending on the plant habit, and only then treated. Here, the herbicidal compositions were suspended or emulsified in water as distribution medium and sprayed using finely distributing nozzles
# (§2) The respective components A and B and/or C were formulated as 10% by weight strength emulsion concentrate and introduced to the spray liquor with the amount of solvent system used for applying the active compound. In the examples, the solvent used was water.
# (§3) The test period extended over 21 days. During this time, the plants were tended, and their response to the treatments with active compound was evaluated.
# (§4) The evaluation for the damage caused by the chemical compositions was carried out using a scale from 0 to 100%, compared to the untreated control plants. Here, 0 means no damage and 100 means complete destruction of the plants.
# (§5) In the examples below, the value E which is to be expected if the activity of the individual compounds is just additive was calculated using the method of S. R. Colby (1967) “Calculating synergistic and antagonistic responses of herbicide combinations”, Weeds 15, p. 22 ff. E=X+Y−([…]) where • X=effect in percent using active compound A at an application rate a; • Y=effect in percent using active compound B at an application rate b; • E=expected effect (in %) of A+B at application rates a+b.
# (§6) If the observed effect is higher than the value E calculated according to Colby, a synergistic effect is present.
# ABUTH = test: Greenhouse post-emergence herbicidal action against ABUTH; format: in vivo, Abutilon theophrasti
# Text: as §1, §2, §3, §4, §5, §6
# ALOMY = test: Greenhouse post-emergence herbicidal action against ALOMY; format: in vivo, Alopecurus myosuroides; settings: 21 days
# Text: as §1, §2, §3, §4, §5, §6
# BIDPI = test: Greenhouse post-emergence herbicidal action against BIDPI; format: in vivo, Bidens pilosa
# Text: as §1, §2, §3, §4, §5, §6
# BRAPL = test: Greenhouse post-emergence herbicidal action against BRAPL; format: in vivo, Brachiaria plantaginea
# Text: as §1, §2, §3, §4, §5, §6
# AVEFA = test: Greenhouse post-emergence herbicidal action against AVEFA; format: in vivo, Avena fatua
# Text: as §1, §2, §3, §4, §5, §6
# POLPE = test: Greenhouse post-emergence herbicidal action against POLPE; format: in vivo, Polygonum persicaria; settings: 21 days
# Text: as §1, §2, §3, §4, §5, §6
# ECHCG = test: Greenhouse post-emergence herbicidal action against ECHCG; format: in vivo, Echinochloa crus-galli
# Text: as §1, §2, §3, §4, §5, §6
# SETFA = test: Greenhouse post-emergence herbicidal action against SETFA; format: in vivo, Setaria faberii
# Text: as §1, §2, §3, §4, §5, §6
# POAPR = test: Pre-emergence herbicidal action against POAPR; format: in vivo, Poa pratensis; settings: 21 days
# Method: as §4
# (§7) In the examples below, the mixtures were applied by the pre-emergence method. To this end, the test plants were initially sown and covered with a thin layer of soil. Afterward (i.e. prior to the germination of the test plants), the mixtures according to the invention were sprayed onto the soil as an aqueous spray liquor at the stated application rate. As in the post-emergence method described above, the test period was 21 days. The damage was then evaluated as described above using a scale from 0 to 100% damage in comparison to untreated control plants (0% damage).
# (§8) A safener action is present if the damage to the crop plant caused by using a mixture according to the invention which contains a safener C) is less than the damage caused when active compound A or active compounds A and B are used without safener.
# TRFPR = test: Pre-emergence herbicidal action against TRFPR; format: in vivo, Trifolium pratense; settings: 21 days
# Method: as §4, §7, §8
# TRZAW = test: Pre-emergence safener action (crop damage) in TRZAW; format: in vivo, Triticum aestivum (Winter wheat); settings: 21 days
# Method: as §4, §7, §8
# [1] = 21 days, application rate g/ha: I.7 1.95, b3.2 62.5
# [2] = 21 days, application rate g/ha: I.7 3.91, b3.2 125
# [3] = I.1 1.95 g/ha and/or b10.1 125 g/ha
# [4] = I.1 3.91 g/ha and/or b10.1 250 g/ha
# [5] = I.14 0.49 g/ha and/or b10.3 62.5 g/ha
# [6] = I.14 0.98 g/ha and/or b10.3 125 g/ha
# [7] = I.14 0.49 g/ha and/or b11.1 62.5 g/ha
# [8] = I.14 0.98 g/ha and/or b11.1 125 g/ha
# [9] = I.14 0.49 g/ha and/or b13.3 62.5 g/ha
# [10] = I.14 0.98 g/ha and/or b13.3 125 g/ha
# [11] = I.7 200 g/ha and/or c.1 200 g/ha
# [12] = I.7 400 g/ha and/or c.1 400 g/ha
# [13] = I.8 200 g/ha and/or c.1 200 g/ha
# [14] = I.8 400 g/ha and/or c.1 400 g/ha
smiles,measurement,setting,value
"CCO/N=C(\CC)C1=C(O)CC(c2c(C)cc(C)cc2C)CC1=O (stereo not drawn) [b1.1, tralkoxydim, reference compound]",Herbicidal action against GALAP found,"GALAP; 21 days, application rate g/ha: I.1 1.95, b1.1 62.5",0%
same,Herbicidal action against GALAP found,"GALAP; 21 days, application rate g/ha: I.1 3.91, b1.1 125",0%
"CCCC(=NOCC(C)Oc1ccc(Cl)cc1)C1=C(O)CC(C2CCCSC2)CC1=O (stereo not drawn) [b1.2, profoxydim, reference compound]",Herbicidal action against ABUTH found,"ABUTH; 21 days, application rate g/ha: I.1 1.95, b1.2 31.25",30%
same,Herbicidal action against ABUTH found,"ABUTH; 21 days, application rate g/ha: I.1 3.91, b1.2 62.5",40%
"COCc1cnc(C2=NC(C)(C(C)C)C(=O)N2)c(C(=O)O)c1 (stereo not drawn) [b2.1, imazamox, reference compound]",Herbicidal action against ALOMY found,"ALOMY; application rate g/ha: I.8 0.49, b2.1 7.81",40%
same,Herbicidal action against ALOMY found,"ALOMY; application rate g/ha: I.8 0.98, b2.1 15.63",70%
"CCc1cnc(C2=NC(C)(C(C)C)C(=O)N2)c(C(=O)O)c1 (stereo not drawn) [b2.2, imazethapyr, reference compound]",Herbicidal action against BIDPI found,"BIDPI; 21 days, application rate g/ha: I.8 0.49, b2.2 7.81",20%
same,Herbicidal action against BIDPI found,"BIDPI; 21 days, application rate g/ha: I.8 0.98, b2.2 15.63",20%
"COc1cc(OC)nc(NC(=O)NS(=O)(=O)c2ncccc2C(=O)N(C)C)n1 [b2.3, nicosulfuron, reference compound]",Herbicidal action against ALOMY found,"ALOMY; application rate g/ha: I.14 0.49, b2.3 0.98",50%
same,Herbicidal action against ALOMY found,"ALOMY; application rate g/ha: I.14 0.98, b2.3 1.95",60%
same,Herbicidal action against BRAPL found,"BRAPL; 21 days, application rate g/ha: I.14 0.49, b2.3 0.98",70%
same,Herbicidal action against BRAPL found,"BRAPL; 21 days, application rate g/ha: I.14 0.98, b2.3 1.95",70%
"CCNc1nc(Cl)nc(NC(C)C)n1 [b3.1, atrazine, reference compound]",Herbicidal action against AVEFA found,"AVEFA; 21 days, application rate g/ha: I.7 1.95, b3.1 62.5",0%
same,Herbicidal action against AVEFA found,"AVEFA; 21 days, application rate g/ha: I.7 3.91, b3.1 125",0%
same,Herbicidal action against POLPE found,"POLPE; application rate g/ha: I.7 1.95, b3.1 62.5",50%
same,Herbicidal action against POLPE found,"POLPE; application rate g/ha: I.7 3.91, b3.1 125",60%
"CN(C)C(=O)Nc1ccc(Cl)c(Cl)c1 [b3.2, diuron, reference compound]",Herbicidal action against BRAPL found,BRAPL; [1],25%
same,Herbicidal action against BRAPL found,BRAPL; [2],60%
same,Herbicidal action against ECHCG found,ECHCG; [1],15%
same,Herbicidal action against ECHCG found,ECHCG; [2],20%
"CC(C)c1ccc(NC(=O)N(C)C)cc1 [b3.3, isoproturon, reference compound]",Herbicidal action against ABUTH found,"ABUTH; 21 days, application rate g/ha: I.7 0.98, b3.3 31.25",0%
same,Herbicidal action against ABUTH found,"ABUTH; 21 days, application rate g/ha: I.7 1.95, b3.3 62.5",40%
"C[n+]1ccc(-c2cc[n+](C)cc2)cc1 [b3.4, paraquat, reference compound]",Herbicidal action against ABUTH found,"ABUTH; 21 days, application rate g/ha: I.7 0.98, b3.4 31.25",0%
same,Herbicidal action against ABUTH found,"ABUTH; 21 days, application rate g/ha: I.7 1.95, b3.4 62.5",40%
"CCOC(=O)/C(Cl)=C/c1cc(N2C(=O)C3=C(CCCC3)C2=O)ccc1Cl [b4.1, cinidon-ethyl, reference compound]",Herbicidal action against POLPE found,"POLPE; application rate g/ha: I.1 0.49, b4.1 0.98",40%
same,Herbicidal action against POLPE found,"POLPE; application rate g/ha: I.1 0.98, b4.1 1.95",50%
"O=C(Nc1ccc(F)cc1)c1cccc(Oc2cccc(C(F)(F)F)c2)n1 [b5.1, picolinafen, reference compound]",Herbicidal action against POLPE found,"POLPE; application rate g/ha: I.8 0.98, b5.1 7.81",30%
same,Herbicidal action against POLPE found,"POLPE; application rate g/ha: I.8 1.95, b5.1 15.63",40%
same,Herbicidal action against BRAPL found,"BRAPL; 21 days, application rate g/ha: I.8 0.98, b5.1 7.81",20%
same,Herbicidal action against BRAPL found,"BRAPL; 21 days, application rate g/ha: I.8 1.95, b5.1 15.63",20%
"CS(=O)(=O)c1ccc(C(=O)C2C(=O)CCCC2=O)c(Cl)c1 [b5.2, sulcotrione, reference compound]",Herbicidal action against ECHCG found,"ECHCG; 21 days, application rate g/ha: I.8 1.95, b5.2 31.25",60%
same,Herbicidal action against ECHCG found,"ECHCG; 21 days, application rate g/ha: I.8 3.91, b5.2 62.5",75%
"CC(C)N.O=C(O)CNCP(=O)(O)O [b6.1, glyphosate isopropylammonium salt, reference compound]",Herbicidal action against AVEFA found,"AVEFA; 21 days, application rate g/ha: I.7 1.95, b6.1 125",0%
same,Herbicidal action against AVEFA found,"AVEFA; 21 days, application rate g/ha: I.7 3.91, b6.1 250",0%
"CP(=O)(O)CCC(N)C(=O)O (stereo not drawn) [b7.1, glufosinate ammonium salt, reference compound]",Herbicidal action against AVEFA found,"AVEFA; 21 days, application rate g/ha: I.7 1.95, b7.1 250",0%
same,Herbicidal action against AVEFA found,"AVEFA; 21 days, application rate g/ha: I.7 3.91, b7.1 500",20%
same,Herbicidal action against POLPE found,"POLPE; application rate g/ha: I.7 1.95, b7.1 250",0%
same,Herbicidal action against POLPE found,"POLPE; application rate g/ha: I.7 3.91, b7.1 500",30%
"CCC(CC)Nc1c([N+](=O)[O-])cc(C)c(C)c1[N+](=O)[O-] [b9.1, pendimethalin, reference compound]",Herbicidal action against AVEFA found,"AVEFA; 21 days, application rate g/ha: I.1 0.98, b9.1 125",10%
same,Herbicidal action against AVEFA found,"AVEFA; 21 days, application rate g/ha: I.1 1.95, b9.1 250",20%
"COC[C@H](C)N(C(=O)CCl)c1c(C)csc1C [b10.1, dimethenamid-P, reference compound]",Herbicidal action against BIDPI found,BIDPI; [3],25%
same,Herbicidal action against BIDPI found,BIDPI; [4],25%
same,Herbicidal action against AVEFA found,AVEFA; [3],30%
same,Herbicidal action against AVEFA found,AVEFA; [4],30%
"CCOCN(C(=O)CCl)c1c(C)cccc1CC [b10.2, acetochlor, reference compound]",Herbicidal action against BIDPI found,"BIDPI; 21 days, application rate g/ha: I.14 1.95, b10.2 250",30%
same,Herbicidal action against BIDPI found,"BIDPI; 21 days, application rate g/ha: I.14 3.91, b10.2 500",70%
"CCc1cccc(C)c1N(C(=O)CCl)[C@@H](C)COC [b10.3, S-metolachlor, reference compound]",Herbicidal action against GALAP found,GALAP; [5],0%
same,Herbicidal action against GALAP found,GALAP; [6],25%
same,Herbicidal action against SETFA found,SETFA; [5],30%
same,Herbicidal action against SETFA found,SETFA; [6],60%
"CCC(C)(CC)c1cc(NC(=O)c2c(OC)cccc2OC)on1 [b11.1, isoxaben, reference compound]",Herbicidal action against GALAP found,GALAP; [7],0%
same,Herbicidal action against GALAP found,GALAP; [8],0%
same,Herbicidal action against SETFA found,SETFA; [7],0%
same,Herbicidal action against SETFA found,SETFA; [8],10%
"COc1c(Cl)ccc(Cl)c1C(=O)O [b13.2, dicamba, reference compound]",Herbicidal action against ECHCG found,ECHCG; I.14 1.95 g/ha and/or b13.2 125 g/ha,0%
same,Herbicidal action against ECHCG found,ECHCG; I.14 3.91 g/ha and/or b13.2 250 g/ha,30%
"CNC.O=C(O)COc1ccc(Cl)cc1Cl [b13.3, 2,4-D dimethylammonium salt, reference compound]",Herbicidal action against BRAPL found,BRAPL; [9],20%
same,Herbicidal action against BRAPL found,BRAPL; [10],50%
same,Herbicidal action against ABUTH found,ABUTH; [9],25%
same,Herbicidal action against ABUTH found,ABUTH; [10],65%
"CCOC(=O)C1=NN(c2ccc(Cl)cc2Cl)C(C)(C(=O)OCC)C1 (stereo not drawn) [c.1, mefenpyr-diethyl, reference compound]",Herbicidal action against POAPR,POAPR; [11],0%
same,Herbicidal action against POAPR,POAPR; [12],0%
same,Herbicidal action against POAPR,POAPR; [13],0%
same,Herbicidal action against POAPR,POAPR; [14],0%
same,Herbicidal action against TRFPR,TRFPR; [11],5%
same,Herbicidal action against TRFPR,TRFPR; [12],5%
same,Herbicidal action against TRFPR,TRFPR; [13],5%
same,Herbicidal action against TRFPR,TRFPR; [14],5%
same,Damage to crop plant TRZAW,TRZAW; [11],0%
same,Damage to crop plant TRZAW,TRZAW; [12],0%
same,Damage to crop plant TRZAW,TRZAW; [13],0%
same,Damage to crop plant TRZAW,TRZAW; [14],0%
